# How the values were obtained:
# physchem = type: physicochemical; conditions: 37 °C, pH 6.5, fassif, thermodynamic from solid, apparent solubility
# Procedure: Excess powder (at least 2‐3 times the expected equilibrium solubility) was added to 10 mL preheated simulated intestinal fluids, and the dissolution was monitored until a plateau was reached. […] This is in line with previously reported observations.^[ [26], [27] ^] […] This is likely because of the neutral and more lipophilic properties of felodipine (Table 1), where it is expected to see a larger benefit of the solubilization properties of the formed micelles.
# The dissolution and apparent solubilities of two poorly water‐soluble drugs, indomethacin and felodipine, were determined in the simulated intestinal fluids using a MicroDISS Profiler (pION Inc Ltd, East Sussex, UK). In each experiment (n ≥ 3), excess powder (at least 2‐3 times) compared to the expected solubility value was added to 10 mL simulated intestinal fluid. The experiments were performed at 37 °C using a stirring rate of 150 rpm, while the samples were scanned by individual UV probes every 10–30 s. […] The concentrations were determined based on the area under the curve in second derivative spectra evaluated over a range of wavelengths. […] The hydrodynamic size of the simulated intestinal fluids and drugs dissolved in the different simulated intestinal fluids was determined using a Malvern Zetasizer Nano ZSP (Malvern Instruments, Worcestershire, UK) with single‐use disposable microcuvettes. […]
# [1] = set-up: method as in PMID 20507160; conditions: cited from earlier work
# [2] = cited from earlier work
Compound,solubility (physchem),LogP [1],Charge (pH 6.5) [1],CMC [2]
"CCOC(=O)C1=C(C)NC(C)=C(C(=O)OC)C1c1cccc(Cl)c1Cl (stereo not drawn) [Felodipine, felodipine]",49.3 ± 1.9 µg/mL,5.58,0,–
"COc1ccc2c(c1)c(CC(=O)O)c(C)n2C(=O)c1ccc(Cl)cc1 [Indomethacin, indomethacin]",–,3.51,−1,–
"C[C@H](CCC(=O)NCCS(=O)(=O)O)[C@H]1CC[C@H]2[C@@H]3[C@H](O)C[C@@H]4C[C@H](O)CC[C@]4(C)[C@H]3C[C@H](O)[C@]12C [Taurocholic acid, taurocholic acid]",–,–,–,3 to 8 mM
